According to ChEMBL document CHEMBL1122261, “Synthesis of three potential inhibitors of leukotriene biosynthesis” (1983):

Legend:
Format in all cases: functional
Homo sapiens [1] = species on record: Homo sapiens; assay: In vitro effect on lipoxygenase activity in intact human polymorphonuclear leukocytes at a concen of 10 e-4 M on formation of 5-HETE
Homo sapiens [2] = species on record: Homo sapiens; assay: In vitro effect on lipoxygenase activity in intact human polymorphonuclear leukocytes at a concentration of 10 e-4 M on formation of Leukotriene B4 (LTB4)
Homo sapiens [3] = species on record: Homo sapiens; assay: In vitro effect on lipoxygenase activity in intact human polymorphonuclear leukocytes at a concentration of 10 e-4 M on formation of 5-HETE

| SMILES | Effect (Homo sapiens [1]) | Effect (Homo sapiens [2]) | Effect (Homo sapiens [3]) |
| --- | --- | --- | --- |
| CCCCC/C=C\C/C=C\C/C=C\Cc1ccccc1CCCC(=O)O | -94% | -91% | – |
| CCCCC/C=C\C/C=C\C(C)(C)/C=C\C/C=C\CCCC(=O)O | 60% | 40% | – |
| CCCCC/C=C\C/C=C\C/C=C\C(C)(C)/C=C\CCCC(=O)O | – | 19% | 29% |
